In brackets after ≈: the same amount, converted by molar mass. Where two headings read alike, the source gives them in different places.

One data set relates to HepG2 cells. In words: MTT human cell cytotoxicity testing. It is filed as cell-based. The conditions noted are these: SAR figures; 4× MIC exposure for 24 h. The method, then: Human HepG2 hepatocytes were seeded in individual wells of a 96-well cell-culture treated microtiter plate at a concentration of 1 × 10^5 cells per well and incubated in Dulbecco’s Modified Eagle Medium (DMEM) supplemented with 10% fetal bovine serum at 37 °C with 5% carbon dioxide overnight. Cells were then treated with DMSO (negative control) or the indicated agent for 24 h. MTT Cell Proliferation Assay Kits were used to assess viability according to the manufacturer’s recommendations (American Type Culture Collection; Manassas, VA, USA).

Data set [1] can be described thus: JC2 stability (degradation test) in Mueller Hinton broth by HPLC. To be noted: 37 °C, read-out: half-life in Mueller Hinton media (MH t1/2) (converted). The format is physicochemical. The method, then: Degradation test: Blank sample was prepared with 20 µL Mueller Hinton broth (BD biosciences, US) diluted in 180 µL of 2 % DMSO in 1:1 (v/v) acetonitrile : water solution, and directly submitted to HPLC for evaluation. A 5 mM JC2 stock solution was prepared by diluting the 25 mM stock solution with DMSO. 4 µL of 5 mM […] solution was added into 196 µL of MH, and incubated at 37 °C for the whole course of evaluation. 20 µL of each incubated sample was taken at 0, 0.5, 1, 2, 4, 8, 16 hr, and were prepared in the same manner as the blank sample before submitting to HPLC.
Chromatography was performed on an Agilent 1200 series HPLC system that equipped with a vacuum degasser, a quaternary pump, a diode array and multiple wavelength detector SL, and a standard and preparative autosampler (Agilent Technologies, US). A Hyspersil GOLD^TM C-18 4.6 x 250 mm, 3 µm column was used for separation. A gradient elution method was used as the mobile phase by mixing solvent A (water, 0.1% formic Acid) and solvent B (acetonitrile, 0.1% formic acid). The time program for gradient elution is shown in Table A. The flow rate was set at 1.0 ml/min, and 20µl of sample was injected each time. The detector monitored absorption at 254, 215, 280 nm.
Chemstation Offline (Agilent Technologies, US) was used to analyze the data. […]

A further data set has as its system S. aureus USA300. In words: MIC against clinical strain USA300. It is filed as cell-based, Staphylococcus aureus.

In general, MIC refers to the least concentration at which growth counts as inhibited. Take `CC1CCCCN1C(=O)Nc1cc(Cl)cc(Cl)c1` (stereo not shown) [JC2]: the “MTT = % HepG2 cell survival” value with HepG2 cells was found to be 87%. Also, the half-life at 100 µM in data set [1] was about 2 h. The MIC in the data set on S. aureus USA300 was 0.5 µg/mL (≈ 1.74 µM); in the data set on S. aureus USA300 (Staphylococcus aureus, read-out: MIC), 0.5 µg/mL (≈ 1.74 µM).
